Experimental findings from patent US20230286973A1, “PROTEIN SECRETION INHIBITORS” (KEZAR LIFE SCIENCES, priority 2020, published 2023) are described below.

A word on the EC50: it is the concentration giving half of the maximal effect.

Data set [1] deals with PD1-ss+10aa/Gaussia Luciferase. In words: Dox-Induced PD1-ss-Gluc Assay. The class given is cell-based. The following applies: 24 hr Dox induction; 293FRT/TO cells; read-out: 24 hr Dox Inducible PD1ssGluc 293FRT/TO: Mean IC50. The procedure, abridged: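 Flp-In 293 T-REx, stable line; Tet-regulated PD1-ss+10aa fused to Gaussia luciferase; plated day prior; cpd + doxycycline in DMSO/media; 37 °C, 5% CO2.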

For data set [2], the system named is TNFα-FL/Gaussia Luciferase. In words: Dox Induced TNFα-FL-Gluc Assay. The class given is cell-based. The following applies: for IC50: 24 hr Dox induction, 293FRT/TO cells, read-out: 24 hr Dox Inducible TNFaFLGluc 293FRT/TO: Mean IC50; for 24 hr Dox Inducible TNFaFLGluc 293FRT/TO: TNF/PD1: ratio of TNFaFLGluc IC50 to PD1ssGluc IC50. The procedure, abridged: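 Flp-In 293 T-REx cells stably expressing full-length TNFα (aa 1-233) fused at its C-terminus to Gaussia luciferase under tetracycline-regulated control were plated the day before assay. Compound dilutions in DMSO/media containing doxycycline were added and incubated at 37 °C, 5% CO2. Unspecified stereochemistry denotes stereoisomer mixtures.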

Data set [3] relates to HER3-ss+4aa/Gaussia Luciferase. In words: Dox-Induced Her3-ss-Gluc Assay. The class given is cell-based. The following applies: 24 hr Dox induction; 293FRT/TO cells; read-out: 24 hr Dox Inducible Her3(ss + 4)Gluc 293FRT/TO: Mean IC50. In short, it runs like this:
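Stable Flp-In 293 T-REx line expressing Gaussia luciferase fused to the HER3 signal sequence plus 4 amino acids under tetracycline-regulated (T-REx) control. Cells plated the day before, then treated with compound dilutions in DMSO/media containing doxycycline and incubated at 37° C., 5% CO2.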

Data set [4] relates to IL-2-FL/Gaussia Luciferase. In words: Dox Induced IL2-FL-Gluc Assay. The following applies: for IC50: 24 hr Dox induction, 293FRT/TO cells, read-out: 24 hr Dox Inducible IL2FLGluc 293FRT/TO: Mean IC50; for 24 hr Dox Inducible IL2FLGluc 293FRT/TO: IL2/PD1: ratio of IL2FLGluc IC50 to PD1ssGluc IC50. The class given is cell-based. The procedure, abridged:
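Flp-In 293 T-REx cells stably carrying doxycycline-inducible full-length IL-2 (aa 1-153) fused at its C-terminus to Gaussia luciferase, selected with hygromycin and blasticidin. Cells were plated the day before, then treated with compounds in DMSO/media containing doxycycline at 37° C, 5% CO2.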

The subject of data set [5] is multiple myeloma cell line NCI-H929. In words: H929 Cell Viability Assay. It counts as cell-based, human. The following applies: Homo sapiens, NCI-H929, 48 h, NCI-H929 cells, Celltiter-Glo. In short, it runs like this:
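NCI-H929 cells, resuspended in RPMI 1640 with 10% FBS and 2 mM glutamine, were treated with compound dilutions in DMSO/media and incubated 48 hours at 37° C, 5% CO2. Viability was read by CellTiter-Glo luminescence. Compounds drawn without stereochemistry were tested as stereoisomer mixtures.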
For orientation: ATP-based viability assays read luminescence as a measure of living cells.

The subject of data set [6] is multiple myeloma cell line U266B1. In words: U266 Cell Viability Assay. It counts as cell-based, human. The following applies: Homo sapiens, U-266, 48 h, U266B1 cells, Celltiter-Glo. The procedure, abridged:
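Cells grown in RPMI 1640 with 10% FBS, 2 mM glutamine and penicillin/streptomycin were exposed to compound dilutions in DMSO/media for 48 hours at 37° C., 5% CO2. Viability was read by CellTiter-Glo luminescence. Undefined stereocentres mean data for stereoisomer mixtures.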

Data set [7] is described as follows: Liver Microsome Stability Assay (rat). The following applies: rat liver microsomes, with NADPH, 1.0 uM compound. Background: Liver microsomes are a subcellular fraction often used to study metabolism.
Protocol: (§1) Stability of a compound was assessed in the presence of liver microsomes from various sources—mouse, rat, monkey and human liver microsomes. 1.0 uM compound, 0.4% DMSO in 0.1 M Potassium Phosphate with 1.0 mg/mL liver microsomes, were incubated at 37° C. with or without 1 mM NADPH. The samples were quenched at 0, and 30 minutes.
Data set [8] in a line: Liver Microsome Stability Assay (mouse). The following applies: mouse liver microsomes, with NADPH, 1.0 uM compound.
Protocol: as §1
A short description of data set [9]: Liver Microsome Stability Assay (human). The following applies: human liver microsomes, with NADPH, 1.0 uM compound.
Protocol: as §1
A short description of data set [10]: Liver Microsome Stability Assay (monkey). The following applies: monkey liver microsomes, with NADPH, 1.0 uM compound.
Protocol: as §1

For the molecule `N#Cc1cc(C(=O)Nc2nc([C@H]3CCCN3c3ccccc3)cs2)n(Cc2ccnc(F)c2)c1` [Compound A149, (R)-4-cyano-1-((2-fluoropyridin-4-yl)methyl)-N-(4-(1-phenylpyrrolidin-2-yl)thiazol-2-yl)-1H-pyrrole-2-carboxamide], the IC50 in data set [1] came to 68.1 nM; in data set [2] it was 1010 nM; in data set [3], 126 nM; in [4], 152 nM. Moreover, the “24 hr Dox Inducible TNFaFLGluc 293FRT/TO: TNF/PD1” value in data set [2] stood at 14.9. Further, the “24 hr Dox Inducible IL2FLGluc 293FRT/TO: IL2/PD1” value in data set [4] is given as 2.2. The EC50 in data set [5] was 2540 nM; in [6], 4390 nM. For the same molecule, in data set [7], the “Liver Microsome Stability (Multiple Species): Rat - % Remaining after 30 min w/NADPH” value is recorded as 17.1%. In data set [8], the “Liver Microsome Stability (Multiple Species): Mouse - % Remaining after 30 min w/NADPH” value turned out to be 46%. Also, the “Liver Microsome Stability (Multiple Species): Human - % Remaining after 30 min w/NADPH” value in data set [9] is 25.9%. For the same molecule, the “Liver Microsome Stability (Multiple Species): Monkey - % Remaining after 30 min w/NADPH” value in data set [10] stood at 9.8%.

For the molecule `NS(=O)(=O)N1CC(Oc2ccc(N3CCC[C@@H]3c3csc(NC(=O)c4cccn4Cc4ccnc(F)c4)n3)cc2)C1` [Compound A150, (R)-1-((2-fluoropyridin-4-yl)methyl)-N-(4-(1-(4-((1-sulfamoylazetidin-3-yl)oxy)phenyl)pyrrolidin-2-yl)thiazol-2-yl)-1H-pyrrole-2-carboxamide], the IC50 in data set [1] stood at 49.2 nM; in data set [2], 758 nM; in data set [3], 82.1 nM; in [4], 130 nM. Further, the “24 hr Dox Inducible TNFaFLGluc 293FRT/TO: TNF/PD1” value in data set [2] is 15.4. The “24 hr Dox Inducible IL2FLGluc 293FRT/TO: IL2/PD1” value in data set [4] was 2.6. The EC50 in data set [5] is 3270 nM; in data set [6], above 25000 nM. For the same molecule, the “Liver Microsome Stability (Multiple Species): Rat - % Remaining after 30 min w/NADPH” value in data set [7] is 51.6%. Further, the “Liver Microsome Stability (Multiple Species): Mouse - % Remaining after 30 min w/NADPH” value in [8] is listed as 36.3%. For the same molecule, the “Liver Microsome Stability (Multiple Species): Human - % Remaining after 30 min w/NADPH” value in data set [9] came out at 17.4%. Further, the “Liver Microsome Stability (Multiple Species): Monkey - % Remaining after 30 min w/NADPH” value in data set [10] was 0.71%.

`CNS(=O)(=O)N1CC(Oc2ccc(N3CCC[C@@H]3c3csc(NC(=O)c4cccn4Cc4ccnc(F)c4)n3)cc2)C1` [Compound A151, (R)-1-((2-fluoropyridin-4-yl)methyl)-N-(4-(1-(4-((1-(N-methylsulfamoyl)azetidin-3-yl)oxy)phenyl)pyrrolidin-2-yl)thiazol-2-yl)-1H-pyrrole-2-carboxamide]: the IC50 stood at 21.5 nM in data set [1], 386 nM in [2], 43.1 nM in [3] and 59 nM in [4]. Moreover, the “24 hr Dox Inducible TNFaFLGluc 293FRT/TO: TNF/PD1” value in data set [2] turned out to be 17.9. For the same molecule, in data set [4], the “24 hr Dox Inducible IL2FLGluc 293FRT/TO: IL2/PD1” value was 2.7. In addition, the 50% effective concentration (EC50) is 1390 nM in [5] and above 25000 nM in [6]. Also, the “Liver Microsome Stability (Multiple Species): Rat - % Remaining after 30 min w/NADPH” value in [7] is on record as 38.3%. Moreover, in data set [8], the “Liver Microsome Stability (Multiple Species): Mouse - % Remaining after 30 min w/NADPH” value was found to be 15.3%. Moreover, the “Liver Microsome Stability (Multiple Species): Human - % Remaining after 30 min w/NADPH” value in data set [9] turned out to be 7.69%. The “Liver Microsome Stability (Multiple Species): Monkey - % Remaining after 30 min w/NADPH” value in [10] worked out at 0.95%.

Take `NC(=O)c1cc(C(=O)Nc2nc([C@H]3CCCN3c3ccccc3)cs2)n(Cc2ccnc(F)c2)c1` [Compound A152, (R)-1-((2-fluoropyridin-4-yl)methyl)-N2-(4-(1-phenylpyrrolidin-2-yl)thiazol-2-yl)-1H-pyrrole-2,4-dicarboxamide]: the IC50 was 2410 nM in data set [1], above 25000 nM in [2], 2130 nM in data set [3] and 3280 nM in data set [4]. In addition, the “24 hr Dox Inducible TNFaFLGluc 293FRT/TO: TNF/PD1” value in data set [2] is given as above 10.4. For the same molecule, the “24 hr Dox Inducible IL2FLGluc 293FRT/TO: IL2/PD1” value in data set [4] is 1.4. In addition, the EC50 was 13200 nM in data set [5] and above 25000 nM in data set [6]. In [7], the “Liver Microsome Stability (Multiple Species): Rat - % Remaining after 30 min w/NADPH” value amounted to 24.1%. In addition, the “Liver Microsome Stability (Multiple Species): Mouse - % Remaining after 30 min w/NADPH” value in data set [8] stood at 48.9%. Moreover, the “Liver Microsome Stability (Multiple Species): Human - % Remaining after 30 min w/NADPH” value in [9] is 44.4%. For the same molecule, the “Liver Microsome Stability (Multiple Species): Monkey - % Remaining after 30 min w/NADPH” value in data set [10] was 28.1%.

Take `C[S+]([O-])N1CC(Oc2ccc(N3CCC[C@@H]3c3csc(NC(=O)c4cccn4Cc4ccnc(F)c4)n3)cc2)C1` (stereo partly drawn) [Compound A153, 1-((2-fluoropyridin-4-yl)methyl)-N-(4-((2R)-1-(4-((1-(methylsulfinyl)azetidin-3-yl)oxy)phenyl)pyrrolidin-2-yl)thiazol-2-yl)-1H-pyrrole-2-carboxamide]: the IC50 in data set [1] is 37.4 nM; in data set [2], 877 nM; in data set [3], 64.8 nM; in data set [4] it was 90.4 nM. Moreover, in data set [2], the “24 hr Dox Inducible TNFaFLGluc 293FRT/TO: TNF/PD1” value was determined as 23.5. Moreover, the “24 hr Dox Inducible IL2FLGluc 293FRT/TO: IL2/PD1” value in data set [4] amounted to 2.4. Further, the EC50 in data set [5] was 1020 nM; in data set [6] it was above 25000 nM. The “Liver Microsome Stability (Multiple Species): Rat - % Remaining after 30 min w/NADPH” value in [7] came out at 19.8%. The “Liver Microsome Stability (Multiple Species): Mouse - % Remaining after 30 min w/NADPH” value in [8] amounted to 1.09%. Moreover, the “Liver Microsome Stability (Multiple Species): Human - % Remaining after 30 min w/NADPH” value in [9] worked out at 1.88%. The “Liver Microsome Stability (Multiple Species): Monkey - % Remaining after 30 min w/NADPH” value in data set [10] is recorded as 2.49%.

As to `CC(=O)N1CCC(Oc2ccc(N3CCC[C@@H]3c3csc(NC(=O)c4cccn4Cc4ccnc(F)c4)n3)nc2)CC1` [Compound A154, (R)-N-(4-(1-(5-((1-acetylpiperidin-4-yl)oxy)pyridin-2-yl)pyrrolidin-2-yl)thiazol-2-yl)-1-((2-fluoropyridin-4-yl)methyl)-1H-pyrrole-2-carboxamide], the IC50 in [1] turned out to be 64.5 nM; in [2], 643 nM; in data set [3], 127 nM; in [4] it was 135 nM. In addition, the “24 hr Dox Inducible TNFaFLGluc 293FRT/TO: TNF/PD1” value in [2] is 9.97. Further, the “24 hr Dox Inducible IL2FLGluc 293FRT/TO: IL2/PD1” value in data set [4] is listed as 2.1. The EC50 in data set [5] was 1520 nM; in data set [6], above 25000 nM. Also, the “Liver Microsome Stability (Multiple Species): Rat - % Remaining after 30 min w/NADPH” value in data set [7] was determined as 16%. Further, the “Liver Microsome Stability (Multiple Species): Mouse - % Remaining after 30 min w/NADPH” value in data set [8] came to 18.3%. Moreover, the “Liver Microsome Stability (Multiple Species): Human - % Remaining after 30 min w/NADPH” value in data set [9] is reported as 1.29%. For the same molecule, in [10], the “Liver Microsome Stability (Multiple Species): Monkey - % Remaining after 30 min w/NADPH” value is 0.22%.

On to `CC(=O)N1CCC(Oc2ccc(N3CCC[C@@H]3c3csc(NC(=O)c4cccn4Cc4ccnc(F)c4)n3)cn2)CC1` [Compound A155, (R)-N-(4-(1-(6-((1-acetylpiperidin-4-yl)oxy)pyridin-3-yl)pyrrolidin-2-yl)thiazol-2-yl)-1-((2-fluoropyridin-4-yl)methyl)-1H-pyrrole-2-carboxamide], for which the IC50 in data set [1] stood at 80 nM; in data set [2], 1340 nM; in data set [3], 86.6 nM; in data set [4] it was 189 nM. In data set [2], the “24 hr Dox Inducible TNFaFLGluc 293FRT/TO: TNF/PD1” value was 16.8. For the same molecule, in data set [4], the “24 hr Dox Inducible IL2FLGluc 293FRT/TO: IL2/PD1” value stood at 2.4. In addition, the EC50 in data set [5] was 2860 nM; in data set [6], above 25000 nM. In addition, in data set [7], the “Liver Microsome Stability (Multiple Species): Rat - % Remaining after 30 min w/NADPH” value was 8.23%. For the same molecule, the “Liver Microsome Stability (Multiple Species): Mouse - % Remaining after 30 min w/NADPH” value in data set [8] was determined as 16.9%. For the same molecule, in [9], the “Liver Microsome Stability (Multiple Species): Human - % Remaining after 30 min w/NADPH” value was 1.07%. For the same molecule, in data set [10], the “Liver Microsome Stability (Multiple Species): Monkey - % Remaining after 30 min w/NADPH” value came out at 0.17%.
